Experimental data as given in PMC11243039, “Antimicrobial, Antioxidant, and Antityrosinase Activities of Morina persica L. and Its Isolated Compounds” (Molecules, 2024).
Converted amounts (≈) assume the structure as drawn.

Target: T1, mushroom tyrosinase
T1 construct: gene PPO3; native mushroom enzyme preparation
Assay: absorbance at […] nm, L-DOPA oxidation (modified Masuda method)
Format: biochemical
Conditions: L-DOPA substrate, phosphate buffer pH 6.8, 23 °C, 10 min preincubation

Row | IC50 | Structure (SMILES)
1 | 297.9 ± 1.2 µg/mL (≈ 664 µM) | O=c1c(O[C@@H]2O[C@H](CO)[C@@H](O)[C@H](O)[C@H]2O)c(-c2ccc(O)cc2)oc2cc(O)cc(O)c12 [MP-1, Kaempferol-3-O-β-glucopyranoside]
2 | 115.2 ± 0.8 µg/mL (≈ 189 µM) | C[C@@H]1O[C@@H](OC[C@H]2O[C@@H](Oc3c(-c4ccc(O)c(O)c4)oc4cc(O)cc(O)c4c3=O)[C@H](O)[C@@H](O)[C@@H]2O)[C@H](O)[C@H](O)[C@H]1O [MP-2, Quercetin-3-O-rutinoside]
